We go through 27 molecules from ChEMBL document CHEMBL1142243, “Potent and selective alpha-ketoheterocycle-based inhibitors of the anandamide and oleamide catabolizing enzyme, fatty acid amide hydrolase” (J Med Chem, 2007).

The structures appear in SMILES notation. Some results are limits rather than exact numbers.

For experiment [1], the target named is T1, Liver carboxylesterase 1 (Homo sapiens, UniProt P23141).
T1 sequence (P23141 whole entry): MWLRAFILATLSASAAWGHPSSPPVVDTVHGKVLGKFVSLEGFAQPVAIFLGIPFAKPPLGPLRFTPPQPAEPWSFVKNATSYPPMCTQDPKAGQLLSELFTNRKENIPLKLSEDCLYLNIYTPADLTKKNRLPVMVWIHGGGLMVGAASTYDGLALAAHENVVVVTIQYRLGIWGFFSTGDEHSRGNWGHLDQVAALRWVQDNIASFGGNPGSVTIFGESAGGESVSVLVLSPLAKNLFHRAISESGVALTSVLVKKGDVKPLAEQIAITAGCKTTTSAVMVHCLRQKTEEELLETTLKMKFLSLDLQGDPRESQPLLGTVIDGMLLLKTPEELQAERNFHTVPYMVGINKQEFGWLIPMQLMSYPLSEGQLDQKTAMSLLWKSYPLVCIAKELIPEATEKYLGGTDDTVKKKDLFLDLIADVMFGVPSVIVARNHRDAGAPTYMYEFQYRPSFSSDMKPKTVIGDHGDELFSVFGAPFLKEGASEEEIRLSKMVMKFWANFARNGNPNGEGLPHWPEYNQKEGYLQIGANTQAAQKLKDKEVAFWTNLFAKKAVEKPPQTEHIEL
The experiment in a line: Inhibition of TGH.

Experiment [2] is filed under the species Homo sapiens. Put plainly: Selectivity for FAAH over TGH.
Experiment [3] has as its target Fatty-acid amide hydrolase 1 (Rattus norvegicus) (UniProt P97612). The experiment in a line: Inhibition of rat recombinant FAAH expressed in Escherichia coli by [14C]oleamide breakdown.
The species named for experiment [4] is Homo sapiens. Put plainly: Selectivity for FAAH over KIAA1363.
Experiment [5] addresses T2, Neutral cholesterol ester hydrolase 1 (Homo sapiens, UniProt Q6PIU2).
T2 sequence (Q6PIU2 whole entry): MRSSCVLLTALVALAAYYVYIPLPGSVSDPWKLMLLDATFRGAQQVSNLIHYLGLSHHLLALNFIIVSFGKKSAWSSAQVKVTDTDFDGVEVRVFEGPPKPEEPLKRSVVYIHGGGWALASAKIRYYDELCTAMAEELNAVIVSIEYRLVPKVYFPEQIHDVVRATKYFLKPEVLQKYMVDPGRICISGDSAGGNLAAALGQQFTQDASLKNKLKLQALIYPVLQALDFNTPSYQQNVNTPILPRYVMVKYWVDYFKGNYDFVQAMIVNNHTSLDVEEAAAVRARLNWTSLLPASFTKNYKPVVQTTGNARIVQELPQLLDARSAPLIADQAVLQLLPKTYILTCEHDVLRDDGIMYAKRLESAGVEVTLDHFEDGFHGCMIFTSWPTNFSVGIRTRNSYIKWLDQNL
The experiment in a line: Inhibition of KIAA1363.

The target in experiment [6] is T3, Fatty-acid amide hydrolase 1 (Homo sapiens, UniProt O00519).
T3 sequence (O00519 whole entry): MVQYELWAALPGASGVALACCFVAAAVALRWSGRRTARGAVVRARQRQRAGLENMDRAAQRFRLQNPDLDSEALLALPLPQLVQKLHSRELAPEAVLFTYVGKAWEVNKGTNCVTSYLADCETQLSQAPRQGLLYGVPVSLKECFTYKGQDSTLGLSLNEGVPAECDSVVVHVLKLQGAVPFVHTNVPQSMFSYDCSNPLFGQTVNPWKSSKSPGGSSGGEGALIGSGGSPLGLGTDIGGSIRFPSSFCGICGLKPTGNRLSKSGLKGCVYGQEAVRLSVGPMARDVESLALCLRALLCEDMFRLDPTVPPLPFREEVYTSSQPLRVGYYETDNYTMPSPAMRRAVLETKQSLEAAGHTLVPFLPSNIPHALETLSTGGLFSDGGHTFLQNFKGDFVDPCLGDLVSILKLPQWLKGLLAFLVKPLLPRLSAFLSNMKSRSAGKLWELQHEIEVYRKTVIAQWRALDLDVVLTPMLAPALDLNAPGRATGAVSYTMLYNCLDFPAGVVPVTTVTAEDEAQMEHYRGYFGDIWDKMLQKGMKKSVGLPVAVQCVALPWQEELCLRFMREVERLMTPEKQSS
The experiment in a line: Inhibition of human FAAH expressed in COS7 cells by [14C]oleamide breakdown. It is filed as cell-based, COS-7.

In general, IC50 refers to the concentration that gives 50% inhibition. The Ki is a dissociation constant, usually derived from enzyme kinetics or from competition with a known ligand. As to `O=C(CCCCCCc1ccccc1)c1ncc(C(=O)N2CCCCC2)o1`, the IC50 in experiment [1] was 8000 nM; in experiment [3], 450 nM; in experiment [5], more than 100000 nM. The Ratio IC50 was 20 in experiment [2] and more than 200 in experiment [4]. In addition, the Ki in experiment [3] is 8 nM.
Consider `O=C(CCCCCCc1ccccc1)c1ncc(Br)o1`, for which the IC50 in experiment [1] worked out at 100 nM; in experiment [3], 190 nM; in experiment [5] it was 13000 nM. The Ratio IC50 is 0.5 in experiment [2] and 70 in experiment [4].
`Cc1ccnc(-c2cnc(C(=O)CCCCCCc3ccccc3)o2)c1`: the values for the IC50 in experiment [1], in experiment [3] and in experiment [5] were 2000 nM, 1 nM and more than 100000 nM, respectively. Further, the Ratio IC50 in experiment [2] was 2000; in experiment [4], more than 100000. Also, the Ki in experiment [3] amounted to 0.6 nM.
In experiment [5], `O=C(CCCCCCc1ccccc1)c1ncc(-c2ccccn2)o1` returned an IC50 of more than 100000 nM.
Take `Nc1ccnc(-c2cnc(C(=O)CCCCCCc3ccccc3)o2)c1`: the figures for the IC50 in experiment [1], in experiment [3] and in experiment [5] were 34000 nM, 340 nM and more than 100000 nM, respectively. Moreover, the Ratio IC50 was 100 in experiment [2] and more than 300 in experiment [4]. Besides, the Ki in experiment [3] worked out at 25 nM.
For `COc1cc(-c2cnc(C(=O)CCCCCCc3ccccc3)o2)nc(OC)n1`, the figures for the IC50 in experiment [1], in experiment [3] and in experiment [5] were 70 nM, 400 nM and more than 100000 nM, respectively. For the same molecule, the Ratio IC50 was 0.2 in experiment [2] and more than 250 in experiment [4]. For the same molecule, in experiment [3], the Ki is 5 nM.
Regarding `O=C(CCCCCCc1ccccc1)c1ncc(-c2cc(C(F)(F)F)ccn2)o1`, the values for the IC50 in experiment [1], in experiment [3] and in experiment [5] were 2000 nM, 1.5 nM and more than 100000 nM, respectively. In addition, the Ratio IC50 in experiment [2] was 1300; in experiment [4], more than 67000. Besides, the Ki in experiment [3] is 3.5 nM.
`O=C(O)c1ccc(-c2cnc(C(=O)CCCCCCc3ccccc3)o2)o1`: the IC50 in experiment [1] was more than 100000 nM; in experiment [3], 850 nM; in experiment [5], more than 100000 nM. Also, the Ratio IC50 in experiment [2] and in experiment [4] was more than 120 throughout. The Ki in experiment [3] stood at 15 nM.
Turning to `COc1ncc(-c2cnc(C(=O)CCCCCCc3ccccc3)o2)c(OC)n1`, the IC50 in experiment [1] was 3000 nM; in experiment [3], 9000 nM; in experiment [5], more than 100000 nM. In addition, the Ratio IC50 in experiment [2] is 0.3; in experiment [4], more than 11. Also, the Ki in experiment [3] came to 26 nM.
Take `O=C(O)c1cccc(-c2cnc(C(=O)CCCCCCc3ccccc3)o2)c1`: the IC50 in experiment [1] was more than 100000 nM; in experiment [3], 1400 nM; in experiment [5], more than 100000 nM. Also, the Ratio IC50 in experiment [2] and in experiment [4] was more than 70 each time. Further, the Ki in experiment [3] was 5 nM.
As for `O=C(CCCCCCc1ccccc1)c1ncc(-c2cc(F)ccn2)o1`, the figures for the IC50 in experiment [1], in experiment [3] and in experiment [5] were 600 nM, 2.5 nM and more than 100000 nM, respectively. In addition, the Ratio IC50 in experiment [2] was 240; in experiment [4], more than 40000. The Ki in experiment [3] is 2 nM.
In the case of `NC(=O)c1cnc(C(=O)CCCCCCc2ccccc2)o1`, the IC50 in experiment [1] is 7000 nM; in experiment [3] it was 350 nM; in experiment [5], more than 100000 nM. Moreover, the Ratio IC50 in experiment [2] is 20; in experiment [4], more than 300.
In the case of `COC(=O)c1ccnc(-c2cnc(C(=O)CCCCCCc3ccccc3)o2)c1`, the values for the IC50 in experiment [1], in experiment [3] and in experiment [5] were 900 nM, 0.6 nM and more than 100000 nM, respectively. For the same molecule, the Ratio IC50 is 2000 in experiment [2] and more than 170000 in experiment [4]. Besides, in experiment [3], the Ki was determined as 1.3 nM.
In the case of `COc1ccnc(-c2cnc(C(=O)CCCCCCc3ccccc3)o2)c1`, the IC50 in experiment [1] was 500 nM; in experiment [3], 1.7 nM; in experiment [5], more than 100000 nM. Also, the Ratio IC50 in experiment [2] stood at 300; in experiment [4] it was 59000. The Ki in experiment [3] came to 0.8 nM.
As for `O=C(O)c1cccc(-c2cnc(C(=O)CCCCCCc3ccccc3)o2)n1`, the IC50 is more than 100000 nM in experiment [1], 100 nM in experiment [3] and more than 100000 nM in experiment [5]. Also, the Ratio IC50 in experiment [2] and in experiment [4] was more than 1000 in each case. The Ki in experiment [3] was determined as 20 nM.
As to `O=C(CCCCCCc1ccccc1)c1ncc(-c2cc([N+](=O)[O-])ccn2)o1`, the IC50 in experiment [1] was 200 nM; in experiment [3] it was 1.6 nM; in experiment [5] it was more than 100000 nM. In addition, the values for the Ratio IC50 in experiment [2] and in experiment [4] were 125 and more than 63000, respectively. The Ki in experiment [3] was 3.2 nM.
In the case of `O=C(O)c1cnc(C(=O)CCCCCCc2ccccc2)o1`, the IC50 in experiment [1] and in experiment [5] was more than 100000 nM in each case.
Consider `NS(=O)(=O)c1cccc(-c2cnc(C(=O)CCCCCCc3ccccc3)o2)c1`, for which the IC50 in experiment [1] was 200 nM; in experiment [3], 400 nM; in experiment [5], more than 100000 nM. Further, the Ratio IC50 in experiment [2] was 0.5; in experiment [4] it was more than 200. Further, the Ki in experiment [3] was determined as 2 nM.
On to `O=C(CCCCCCc1ccccc1)c1ncc(-c2cc(=O)[nH]c(=O)[nH]2)o1`, for which the IC50 is 30000 nM in experiment [1], 5 nM in experiment [3] and more than 100000 nM in experiment [5]. For the same molecule, the Ratio IC50 was 6200 in experiment [2] and more than 20000 in experiment [4]. Besides, the Ki in experiment [3] came to 12 nM.
Consider `N#Cc1ccnc(-c2cnc(C(=O)CCCCCCc3ccccc3)o2)c1`, for which the IC50 in experiment [1] is 400 nM; in experiment [3] it was 0.8 nM; in experiment [5], more than 100000 nM. For the same molecule, the Ratio IC50 in experiment [2] was 500; in experiment [4], more than 125000. Further, the Ki in experiment [3] is 1.1 nM.
Consider `O=C(CCCCCCc1ccccc1)c1ncco1`, for which the 50% inhibitory concentration (IC50) in experiment [1] stood at 20 nM; in experiment [3] it was 2500 nM; in experiment [5], 19000 nM. In addition, the Ratio IC50 was determined as 0.008 in experiment [2] and 8 in experiment [4].
`O=C(CCCCCCc1ccccc1)c1ncc(-c2c[nH]c(=O)[nH]c2=O)o1`: the values for the IC50 in experiment [1], in experiment [3] and in experiment [5] were 30000 nM, 680 nM and more than 100000 nM, respectively. The results for the Ratio IC50 in experiment [2] and in experiment [4] were 40 and more than 150, respectively. Besides, the Ki in experiment [3] turned out to be 350 nM.
Regarding `COC(=O)c1cnc(C(=O)CCCCCCc2ccccc2)o1`, the IC50 was 300 nM in experiment [1] and more than 100000 nM in experiment [5].
With `O=C(CCCCCCc1ccccc1)c1ncc(C(F)(F)F)o1`, the results for the IC50 in experiment [1], in experiment [3] and in experiment [5] were 200 nM, 77 nM and more than 100000 nM, respectively. Further, the Ratio IC50 in experiment [2] was 3; in experiment [4] it was more than 1300.
In the case of `O=C(O)c1ccc(-c2cnc(C(=O)CCCCCCc3ccccc3)o2)nc1`, the Ki in experiment [6] is 8 nM; in experiment [3], 7 nM. For the same molecule, the IC50 in experiment [1] was 3000 nM; in experiment [3] it was 50 nM; in experiment [5], more than 100000 nM. For the same molecule, the Ratio IC50 in experiment [2] was 60; in experiment [4], more than 2000.
Consider `NC(=O)c1cccc(-c2cnc(C(=O)CCCCCCc3ccccc3)o2)c1`, for which the IC50 was more than 100000 nM in experiment [1], 2700 nM in experiment [3] and more than 100000 nM in experiment [5]. The Ratio IC50 in experiment [2] and in experiment [4] was more than 40 each time. The Ki in experiment [3] is 6 nM.
In the case of `N#Cc1cnc(C(=O)CCCCCCc2ccccc2)o1`, the figures for the IC50 in experiment [1] and in experiment [5] were 20 nM and more than 100000 nM, respectively.
